Like-named read-outs stand apart in the source and are kept apart here.

A word on the EC50: it is the concentration that produces a half-maximal response. A high value points to weaker potency. In general, ΔTm refers to the shift of the melting midpoint relative to a reference.

For experiment [1], the target named is WT human STING isoform (THP-1-Dual KI-hSTING-R232 cells) (Homo sapiens (Human), UniProt Q86WV6, H232R). Put plainly: THP-1-Dual KI-hSTING-R232 reporter cell line assay. Particulars: 24 h incubation, QUANTI-Luc luminescence. It counts as cell-based. On the procedure: (§1) THP-1 STING Lucia ISG cells (InvivoGen #thpI-isg) were cultured in RPMI-1640 containing 2 mM L-glutamine, 25 mM HEPES, 100 μg/mL Normocin (InvivoGen) and 10% heat-inactivated FBS. Cells were seeded at a density of 7×10^5 cells/mL, maintained at 37° C./5% CO2, and passaged every 3-4 days. Selection pressure was maintained by the addition of 100 μg/mL Zeocin every second passage.
Chain of WT human STING isoform (THP-1-Dual KI-hSTING-R232 cells) (Q86WV6 whole entry H232R, canonical isoform): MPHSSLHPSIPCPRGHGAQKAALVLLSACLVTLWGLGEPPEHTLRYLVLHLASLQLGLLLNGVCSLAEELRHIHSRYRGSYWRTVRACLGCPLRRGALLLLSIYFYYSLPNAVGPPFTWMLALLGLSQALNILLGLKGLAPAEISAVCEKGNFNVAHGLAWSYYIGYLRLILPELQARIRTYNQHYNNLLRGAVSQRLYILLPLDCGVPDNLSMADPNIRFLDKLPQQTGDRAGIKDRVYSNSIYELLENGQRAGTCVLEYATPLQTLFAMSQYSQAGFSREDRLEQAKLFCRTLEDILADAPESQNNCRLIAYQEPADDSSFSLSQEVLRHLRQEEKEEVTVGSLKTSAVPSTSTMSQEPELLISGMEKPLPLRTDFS
(§2) Assay conditions: cells were harvested and resuspended at a concentration of 5×10^5 cells/mL in fresh growth media. Of this cell preparation 20 μL per well was dispensed into 384 well cell culture plates (Greiner, #781098X) and incubated at 37° C./5% CO2 for 2 hours. Concentration Response Curves (commonly 11 doses) were prepared by 2.5 fold serial dilution starting from 10 mM compound stock solution in DMSO. Compound dilutions were transferred into the cell culture plates using a pintool (0.1 μL transfer), control wells were matched for DMSO. Positive control wells received ML RR—S2 CDA (Med Chem Express HY12885B) in 5 μL of media to a final concentration of 40 μM. All other wells received additional 5 μL of media only to equalise volume. The plates were incubated for 24 h at 37° C./5% CO2.
(§3) For the detection step, QUANTI-Luc (InvivoGen #rep-qlc1) was prepared according to manufacturer's instruction and 10 μL were added per well to the culture plates. Plates were shaken for ten seconds on an orbital shaker and left in the dark at room temperature for two minutes, before luminescence was read on a Perkin Elmer Envision plate reader.
(§4) Data analysis: Luminescence raw data was normalised % activity relative to the signal of the positive control wells and negative control wells which were not treated with compound. The following formula was used to calculate normalised % activity from raw signals: % activity=(sample−negative)/(positive−negative)
(§5) The THP-1 STING Lucia ISG cell EC50 provides an assessment of activity at the human HAQ isoform of STING. For assessing compound activity against the WT human STING isoform, an equivalent method was conducted where the cells used were THP-1-Dual KI-hSTING-R232 (InvivoGen #thpd-r232).

Experiment [2] addresses human STING (WT) (Homo sapiens (Human), UniProt Q86WV6, H232R). Nature of the experiment: Differential scanning fluorimetry (DSF), huSTING (WT). It counts as binding. Particulars: for ΔTm at 100 µM: read-out: DSF huSTING (WT) ΔTm (° C.). On the procedure: (§6) Biophysical experiments were performed with three different recombinant human STING protein variants designated according to allelic nomenclature of Yi et al., (2013). […] These were ligated into a modified pET43a E. coli expression vector designed to encode N-terminal His tag followed by tobacco etch virus protease (TEV) cleavage site and a STING gene sequence. The resulting protein sequences for the three allelic variants are listed below: […] Cultures were then cooled to 16° C. and protein expression induced by the addition of isopropyl β-D-1-thiogalactopyranoside to a final concentration of 0.5 mM and the cultures shaken overnight for further 16 hours. Following expression, cell cultures were centrifuged at 5000×g for 20 min and cell pellet stored frozen at −70° C. Protein purification was initiated by thawing the cell pellet in Lysis buffer (25 mM Tris-HCl pH 8.0, 300 mM NaCl, 5 mM DTT, 2 mM MgCl2, 10 mM imidazole, 0.5 mg/ml lysozyme, benzonase endonuclease [EMD Millipore], 1 mM PMSF, complete protease inhibitor tablets EDTA-free [Roche]) using a ratio of 7 ml of buffer per 1 g of cells. Cells were further lysed by 3 passes through an ice cooled Avestin C5 cell crusher and then centrifuged at 48,000×g at 4° C. […] The IMAC column was then sequentially washed with IMAC Wash buffer 1 and IMAC Wash buffer 2 (25 mM Tris-HCl pH 8.0, 300 mM NaCl, 5 mM DTT, 20 mM Imidazole) and bound His-TEV-hSTING protein eluted with IMAC Elution buffer (25 mM Tris-HCl pH 8.0, 300 mM NaCl, 5 mM DTT, 250 mM Imidazole). […] Differential scanning fluorimetry (DSF) is a rapid screening method for identifying low-molecular-weight ligands that bind and, in doing so, stabilize (or sometimes destabilize) purified proteins (Niesen 2007). DSF monitors thermal unfolding of protein in the presence of a fluorescent dye and is typically performed using a real-time PCR instrument. The temperature at which a protein unfolds is measured by an increase in the fluorescence of a dye with affinity for hydrophobic parts of the protein that are gradually being exposed during unfolding. The fluorescence of the dye is quenched in aqueous environments, but when the dye associates with hydrophobic sites on unfolded protein, its fluorescence increases. The fluorescence intensity is plotted as a function of the temperature, generating a sigmoidal curve that can be described by a two-state transition. The inflection point of the transition curve (Tm) is calculated using simple equations such as that of Boltzmann. Thermal stability of STING protein (with and without bound ligand) was measured using previously described methodology (Seabrook & Newman, 2013), with samples tested in triplicate using 96-well PCR microplate (AB Gene, ABGAB-0600/W). […] Sealed plates were placed into Bio-Rad CFX96/C1000 thermocycler and FRET scanning mode (λ^excitation of 490 nm and reads at a λ^emission of 570 nm). Melting curves were recorded from 20° C. to 100° C. in 0.5° C. increments every 30 seconds with a read at each increment. Data were analysed using “Meltdown analysis” protocol described by Rosa (2015).

The target in experiment [3] is human STING (HAQ) (Homo sapiens, UniProt Q86WV6, G230A/H232R/R293Q). Nature of the experiment: Differential scanning fluorimetry (DSF), huSTING (HAQ). The format is binding. The following applies: read-out: DSF huSTING (HAQ) ΔTm (° C.). On the procedure: as §6
Chain of human STING (HAQ) (Homo sapiens, UniProt Q86WV6, G230A/H232R/R293Q) (Q86WV6 whole entry G230A/H232R/R293Q, looked up): as the sequence (Q86WV6 whole entry H232R, canonical isoform) above, with G230A, R293Q counted along it
A general note: Differential scanning fluorimetry follows unfolding on heating by fluorescence.

Experiment [4] has as its target human HAQ isoform of STING (THP-1 STING Lucia ISG cells) (Homo sapiens (Human), UniProt Q86WV6, G230A/H232R/R293Q/R71H). Nature of the experiment: THP-1 STING Lucia ISG reporter cell line assay. Particulars: 24 h incubation, QUANTI-Luc luminescence. It counts as cell-based. On the procedure:
as §1, §2, §3, §4, §5

The subject of experiment [5] is human STING (HAQ). Put plainly: Differential scanning fluorimetry (DSF), huSTING (HAQ). The following applies: 2 μM protein, compound 100 μM; Tm with ligand minus Tm of protein alone (1% DMSO). It counts as binding. On the procedure:
as §6

Setting [6] is: 2 μM protein, compound 100 μM, Tm with ligand minus Tm of protein alone (1% DMSO).

Chain of human HAQ isoform of STING (THP-1 STING Lucia ISG cells) (Q86WV6 whole entry R71H/G230A/H232R/R293Q, canonical isoform): as the sequence (Q86WV6 whole entry H232R, canonical isoform) above, with R71H, G230A, R293Q counted along it
Chain of human STING (WT) (Q86WV6 other isoform, or with tags, fused parts or gaps, stated change not applied): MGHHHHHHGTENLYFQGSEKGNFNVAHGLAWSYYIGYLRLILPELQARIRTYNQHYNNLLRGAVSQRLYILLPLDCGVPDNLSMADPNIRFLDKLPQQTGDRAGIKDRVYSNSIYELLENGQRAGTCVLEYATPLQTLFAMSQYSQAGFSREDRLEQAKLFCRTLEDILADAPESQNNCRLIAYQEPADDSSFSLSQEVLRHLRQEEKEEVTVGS

With `COc1c(C(N)=O)ccc2c1nc(-c1cc(Cl)c(Cl)cc1C(=O)O)n2CCn1c(-c2cc(Cl)c(Cl)cc2C(=O)O)nc2c(OC)c(C(N)=O)ccc21` [Example 8, 6,6′-(Ethane-1,2-diylbis(5-carbamoyl-4-methoxy-1H-benzo[d]imidazole-1,2-diyl))bis(3,4-dichlorobenzoic acid)], the values for the EC50 in experiment [1] and in experiment [4] were 426 nM and 540 nM, respectively. In addition, the values for the ΔTm at 100 µM in experiment [2] and in experiment [3] were 6.38 °C and 23.2 °C, respectively.

With `NC(=O)c1ccc2c(c1)nc(-c1c(Br)cccc1C(=O)O)n2CCn1c(-c2c(Br)cccc2C(=O)O)nc2cc(C(N)=O)ccc21` (single isomer, unassigned) [Example 29.2, 2,2′-(Ethane-1,2-diylbis(5-carbamoyl-1H-benzo[d]imidazole-1,2-diyl))bis(3-bromobenzoic acid)], the EC50 in experiment [1] and in experiment [4] was over 40000 nM throughout. In addition, in experiment [2] (setting [6]), the “DSF huSTING (WT) ΔTm (° C.)” value was −6.70 °C. Besides, the “DSF huSTING (HAQ) ΔTm (° C.)” value in experiment [5] was −5.65 °C.

As for `COc1c(C(N)=O)ccc2c1nc(-c1c(I)cccc1C(=O)O)n2CCn1c(-c2c(I)cccc2C(=O)O)nc2c(OC)c(C(N)=O)ccc21` (single isomer, unassigned) [Example 19.2, 2,2′-(Ethane-1,2-diylbis(5-carbamoyl-4-methoxy-1H-benzo[d]imidazole-1,2-diyl))bis(3-iodobenzoic acid)], the EC50 in experiment [1] was determined as 11700 nM; in experiment [4], 14900 nM. In experiment [2] (setting [6]), the “DSF huSTING (WT) ΔTm (° C.)” value amounted to 6.58 °C. The “DSF huSTING (HAQ) ΔTm (° C.)” value in experiment [5] turned out to be 21.66 °C.

In the case of `COc1c(C(N)=O)ccc2c1nc(-c1ccc(Cl)cc1-c1nn[nH]n1)n2CCn1c(-c2c(F)cc(Cl)cc2C(=O)O)nc2c(OC)c(C(N)=O)ccc21` [Example 47, 2-(5-Carbamoyl-1-(2-(5-carbamoyl-2-(4-chloro-2-(2H-tetrazol-5-yl)phenyl)-4-methoxy-1H-benzo[d]imidazol-1-yl)ethyl)-4-methoxy-1H-benzo[d]imidazol-2-yl)-5-chloro-3-fluorobenzoic acid], the EC50 in experiment [1] came to 549 nM; in experiment [4], 497 nM.

For the compound `COc1c(C(N)=O)ccc2c1nc(-c1ccc(Br)cc1C(=O)O)n2CCn1c(-c2ccc(Br)cc2C(=O)O)nc2c(OC)c(C(N)=O)ccc21` [Example 14, 6,6′-(Ethane-1,2-diylbis(5-carbamoyl-4-methoxy-1H-benzo[d]imidazole-1,2-diyl))bis(3-bromobenzoic acid)], the EC50 in experiment [1] turned out to be 1990 nM; in experiment [4] it was 1310 nM. The thermal shift (ΔTm) at 100 µM in experiment [2] (setting [6]) stood at 4.74 °C; in experiment [3] (setting [6]), 9.15 °C.

Take `COC(=O)c1cc(Br)ccc1-c1nc2c(OC)c(C(N)=O)ccc2n1CCn1c(-c2ccc(Br)cc2C(=O)OC)nc2c(OC)c(C(N)=O)ccc21` [Example 13, Dimethyl 6,6′-(ethane-1,2-diylbis(5-carbamoyl-4-methoxy-1H-benzo[d]imidazole-1,2-diyl))bis(3-bromobenzoate)]: the EC50 in experiment [1] and in experiment [4] was over 40000 nM each time.

For `COc1c(C(N)=O)ccc2c1nc(-c1cc(F)ccc1C(=O)O)n2CCn1c(-c2cc(F)ccc2C(=O)O)nc2c(OC)c(C(N)=O)ccc21` [Example 28, 2,2′-(Ethane-1,2-diylbis(5-carbamoyl-4-methoxy-1H-benzo[d]imidazole-1,2-diyl))bis(4-fluorobenzoic acid)], the EC50 in experiment [1] was over 40000 nM; in experiment [4], 12600 nM. For the same compound, the values for the ΔTm at 100 µM in experiment [2] (setting [6]) and in experiment [3] (setting [6]) were -6.6 °C and -2.19 °C, respectively.

On to `COc1c(C(N)=O)ccc2c1nc(-c1c(C(=O)O)ccc(Cl)c1F)n2CCn1c(-c2c(C(=O)O)ccc(Cl)c2F)nc2c(OC)c(C(N)=O)ccc21` [Example 12, 2,2′-(Ethane-1,2-diylbis(5-carbamoyl-4-methoxy-1H-benzo[d]imidazole-1,2-diyl))bis(4-chloro-3-fluorobenzoic acid)], for which the EC50 is 2550 nM in experiment [1] and 2650 nM in experiment [4]. For the same compound, the ΔTm at 100 µM in experiment [2] (setting [6]) was 4.56 °C; in experiment [3] (setting [6]), 28.3 °C.

In the case of `COc1c(C(N)=O)ccc2c1nc(-c1ccc(F)cc1C(=O)O)n2CCn1c(-c2ccc(F)cc2C(=O)O)nc2c(OC)c(C(N)=O)ccc21` [Example 27, 6,6′-(Ethane-1,2-diylbis(5-carbamoyl-4-methoxy-1H-benzo[d]imidazole-1,2-diyl))bis(3-fluorobenzoic acid)], the values for the EC50 in experiment [1] and in experiment [4] were 10500 nM and 11300 nM, respectively. Besides, the ΔTm at 100 µM was determined as 2.62 °C in experiment [2] (setting [6]) and 6.17 °C in experiment [3] (setting [6]).

As to `COc1c(C(N)=O)ccc2c1nc(-c1cc(Cl)ccc1C(=O)O)n2CCn1c(-c2cc(Cl)ccc2C(=O)O)nc2c(OC)c(C(N)=O)ccc21` [Example 7, 2,2′-(Ethane-1,2-diylbis(5-carbamoyl-4-methoxy-1H-benzo[d]imidazole-1,2-diyl))bis(4-chlorobenzoic acid)], the EC50 in experiment [1] was determined as 1430 nM; in experiment [4] it was 1550 nM. Also, the ΔTm at 100 µM was -2.49 °C in experiment [2] (setting [6]) and 5.88 °C in experiment [3] (setting [6]).

For `COc1c(C(N)=O)ccc2c1nc(-c1ccc(C#N)cc1C(=O)O)n2CCn1c(-c2ccc(C#N)cc2C(=O)O)nc2c(OC)c(C(N)=O)ccc21` [Example 51, 2-(5-Carbamoyl-1-(2-(5-carbamoyl-2-(2-carboxy-4-cyanophenyl)-4-methoxy-1H-benzo[d]imidazol-1-yl)ethyl)-4-methoxy-1H-benzo[d]imidazol-2-yl)-5-cyanobenzoic acid], the ΔTm at 100 µM is -0.85 °C in experiment [2] (setting [6]) and 1.6 °C in experiment [3] (setting [6]).

With `NC(=O)c1ccc2c(c1)nc(-c1ccc(Cl)cc1C(=O)O)n2CCn1c(-c2ccc(Cl)cc2C(=O)O)nc2cc(C(N)=O)ccc21` [Example 39, 6,6′-(Ethane-1,2-diylbis(5-carbamoyl-1H-benzo[d]imidazole-1,2-diyl))bis(3-chlorobenzoic acid)], the EC50 in experiment [1] and in experiment [4] was over 40000 nM in each case. For the same compound, the ΔTm at 100 µM was -4.35 °C in experiment [2] (setting [6]) and 0.86 °C in experiment [3] (setting [6]).

The record behind these values is patent US12415785B2, “Compound modulators of sting” (CTXT PTY LTD, priority 2019, dated 2025).
